In patent US9079866B2, “Flap modulators” (JANSSEN PHARMACEUTICA NV, priority 2013, dated 2015):
pKi: −log10 of the molar value. Structures can show the parent of a compound that is named as a salt.

The compounds below were run against human FLAP (Homo sapiens (Human), UniProt P20292) (assay: FLAP binding assay (HTRF format)). Conditions: human FLAP wild type, HTRF format; average of two plates, duplicates.
Protocol: The ability of the compounds of the present invention to treat a FLAP-mediated disease and/or disorder, or associated symptoms or complications thereof, was determined using the following procedures. Binding assay data represent the average value obtained from two different assay plates, with samples run in duplicate on each plate. Human whole blood assay data represent a single replicate on an assay plate using whole blood from at least one healthy donor.
Data are expressed as a HTRF ratio.

human FLAP, sequence (P20292 whole entry): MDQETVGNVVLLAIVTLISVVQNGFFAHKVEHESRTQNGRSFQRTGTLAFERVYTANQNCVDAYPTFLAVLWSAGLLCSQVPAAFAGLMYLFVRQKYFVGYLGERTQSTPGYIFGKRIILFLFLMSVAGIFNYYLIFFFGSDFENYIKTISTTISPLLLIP

pKi | SMILES
6.13 | Nc1ncc(-c2ccc(-c3ccccc3S(=O)(=O)C3CCS(=O)(=O)CC3)cc2F)cn1 [Example 316, 5-{2′-[(1,1-Dioxidotetrahydro-2H-thiopyran-4-yl)sulfonyl]-3-fluorobiphenyl-4-yl}pyrimidin-2-amine hydrochloride]
5.60 | Nc1cnc(S(=O)(=O)c2ccccc2-c2ccc(-c3cnc(N)nc3)c(F)c2)nc1 [Example 339, 5-{2′-[(5-Aminopyrimidin-2-yl)sulfonyl]-3-fluorobiphenyl-4-yl}pyrimidin-2-amine hydrochloride]
< 5.00 | CS(=O)(=O)c1ccccc1-c1ccc(-c2ccc(N)nc2)c(F)c1 [Example 341, 5-(3-Fluoro-2′-(methylsulfonyl)-[1,1′-biphenyl]-4-yl)pyridin-2-amine]
7.11 | C[C@@H](CO)NS(=O)(=O)c1ccccc1-c1ccc(-c2ccc(N)nc2)c(F)c1 [Example 347, (S)-4′-(6-Aminopyridin-3-yl)-3′-fluoro-N-(1-hydroxypropan-2-yl)-[1,1′-biphenyl]-2-sulfonamide]
< 5.00 | CC(C)Sc1ncc(C(F)(F)F)cc1-c1ccc(-c2cnc3[nH]ccc3n2)c(F)c1 [Example 394, 2-(2-Fluoro-4-{2-[(1-methylethyl)sulfanyl]-5-(trifluoromethyl)pyridin-3-yl}phenyl)-5H-pyrrolo[2,3-b]pyrazine]

Same assay, conditions: read-out: FLAP Binding wild type HTRF Ki

SMILES | pKi
Nc1ncc(-c2ccc(-c3ccccc3S(=O)(=O)c3ncncc3N)cc2F)cn1 [Example 337, 5-{2′-[(5-Aminopyrimidin-4-yl)sulfonyl]-3-fluorobiphenyl-4-yl}pyrimidin-2-amine hydrochloride] | 5.60

Same assay, conditions: wild type FLAP, HTRF format

SMILES | pKi
Nc1cnc(-c2ccc(-c3cccnc3OCC3CCNC3)cc2F)cn1 (centres unmarked) [Example 407, 5-{2-Fluoro-4-[2-(pyrrolidin-3-ylmethoxy)pyridin-3-yl]phenyl}pyrazin-2-amine] | < 5.00
Nc1ncc(-c2ccc(-c3cccnc3N)cc2F)cn1 [Example 409, 5-[4-(2-Aminopyridin-3-yl)-2-fluorophenyl]pyrimidin-2-amine] | < 5.00
N#Cc1nc(-c2ccc(-c3ccccc3C(=O)N3CCOCC3)cc2F)cnc1N [Example 416, 3-Amino-6-[3-fluoro-2′-(morpholin-4-ylcarbonyl)biphenyl-4-yl]pyrazine-2-carbonitrile] | 5.90
CC(C)(C)NS(=O)(=O)c1ccccc1-c1ccc(-c2ncc3cc[nH]c3n2)c(F)c1 [Example 418, N-tert-Butyl-3′-fluoro-4′-(7H-pyrrolo[2,3-d]pyrimidin-2-yl)biphenyl-2-sulfonamide] | 5.90
CC(=O)Nc1ccccc1-c1ccc(-c2cnc(N)cn2)c(F)c1 [Example 459, N-[4′-(5-Aminopyrazin-2-yl)-3′-fluorobiphenyl-2-yl]acetamide] | < 5.00
NC(=O)Nc1ccccc1-c1ccc(-c2cnc(N)cn2)c(F)c1 [Example 460, 1-[4′-(5-Aminopyrazin-2-yl)-3′-fluorobiphenyl-2-yl]u rea] | < 5.00
Cc1c(-c2ccccc2NS(C)(=O)=O)ccc(-c2cnc(N)cn2)c1F [Example 463, N-[4′-(5-Aminopyrazin-2-yl)-3′-fluoro-2′-methylbiphenyl-2-yl]methanesulfonamide] | 6.01
Nc1cnc(-c2ccc(-c3ccccc3C(=O)O)cc2F)cn1 [Example 485, 4′-(5-Aminopyrazin-2-yl)-3′-fluorobiphenyl-2-carboxylic acid] | < 5.00
NC(=O)c1ccccc1-c1ccc(-c2cnc(N)cn2)c(F)c1 [Example 486, 4′-(5-Aminopyrazin-2-yl)-3′-fluorobiphenyl-2-carboxamide] | 5.60
Nc1ncc(-c2ccc(-c3ccccc3C(=O)N3CCOCC3)cc2F)cn1 [Example 499, 5-[3-Fluoro-2′-(morpholin-4-ylcarbonyl)biphenyl-4-yl]pyrimidin-2-amine] | 6.36
Nc1cnc(-c2ccc(-c3ccccc3C(=O)N3CCNCC3)cc2F)cn1 [Example 506, 5-[3-Fluoro-2′-(piperazin-1-ylcarbonyl)biphenyl-4-yl]pyrazin-2-amine] | < 5.00
CC(=O)N1CCN(C(=O)c2ccccc2-c2ccc(-c3cnc(N)cn3)c(F)c2)CC1 [Example 507, 5-{2′-[(4-Acetylpiperazin-1-yl)carbonyl]-3-fluorobiphenyl-4-yl}pyrazin-2-amine] | < 5.00
Nc1cnc(-c2ccc(-c3ccccc3C(=O)NC3CCCCC3)cc2F)cn1 [Example 508, 4′-(5-Aminopyrazin-2-yl)-N-cyclohexyl-3′-fluorobiphenyl-2-carboxamide] | 6.10
C[C@@H](CO)NC(=O)c1ccccc1-c1ccc(-c2cnc(N)cn2)c(F)c1 [Example 513, 4′-(5-Aminopyrazin-2-yl)-3′-fluoro-N-[(1S)-2-hydroxy-1-methylethyl]biphenyl-2-carboxamide] | < 5.00
Nc1cnc(-c2ccc(-c3ccccc3C(=O)N3CCC(N)CC3)cc2F)cn1 [Example 515, 5-{2′-[(4-Aminopiperidin-1-yl)carbonyl]-3-fluorobiphenyl-4-yl}pyrazin-2-amine] | < 5.00
Nc1ncc(-c2ccc(-c3ccccc3C(=O)N3CCS(=O)(=O)CC3)cc2F)cn1 [Example 516, 5-{2′-[(1,1-Dioxidothiomorpholin-4-yl)carbonyl]-3-fluorobiphenyl-4-yl}pyrimidin-2-amine] | < 5.00
C[C@@H](CO)NC(=O)c1ccccc1-c1ccc(-c2cnc(N)nc2)c(F)c1 [Example 517, 4′-(2-Aminopyrimidin-5-yl)-3′-fluoro-N-[(1S)-2-hydroxy-1-methylethyl]biphenyl-2-carboxamide] | < 5.00

Other lines, results leading:

pKi | SMILES
< 5.00 | Fc1cc(-c2cccnc2OCC(F)(F)F)ccc1-c1cnc2[nH]ccc2n1 [Example 397, 2-{2-Fluoro-4-[2-(2,2,2-trifluoroethoxy)pyridin-3-yl]phenyl}-5H-pyrrolo[2,3-b]pyrazine]
6.21 | Nc1cnc(-c2ccc(-c3ccccc3F)cc2F)cn1 [Example 468, 5-(2′,3-Difluorobiphenyl-4-yl)pyrazin-2-amine]
6.21 | Cc1ccccc1-c1ccc(-c2cnc(N)cn2)c(F)c1 [Example 470, 5-(3-Fluoro-2′-methylbiphenyl-4-yl)pyrazin-2-amine]
6.12 | Nc1cnc(-c2ccc(-c3ccccc3OC(F)(F)F)cc2F)cn1 [Example 475, 5-[3-Fluoro-2′-(trifluoromethoxy)biphenyl-4-yl]pyrazin-2-amine]
6.60 | Nc1cnc(-c2ccc(-c3c(F)cccc3F)cc2F)cn1 [Example 478, 5-(2′,3,6′-Trifluorobiphenyl-4-yl)pyrazin-2-amine]
6.45 | CCc1ccccc1-c1ccc(-c2cnc(N)cn2)c(F)c1 [Example 480, 5-(2′-Ethyl-3-fluorobiphenyl-4-yl)pyrazin-2-amine]
6.92 | CC(C)c1ccccc1-c1ccc(-c2cnc(N)cn2)c(F)c1 [Example 482, 5-[3-Fluoro-2′-(1-methylethyl)biphenyl-4-yl]pyrazin-2-amine]
6.11 | C[C@H](NC(=O)c1ccccc1-c1ccc(-c2cnc(N)nc2)c(F)c1)C(F)(F)F [Example 504, 4′-(2-Aminopyrimidin-5-yl)-3′-fluoro-N-[(1S)-2,2,2-trifluoro-1-methylethyl]biphenyl-2-carboxamide]
5.71 | CNC(=O)c1ccccc1-c1ccc(-c2cnc(N)cn2)c(F)c1 [Example 510, 4′-(5-Aminopyrazin-2-yl)-3′-fluoro-N-methylbiphenyl-2-carboxamide]
